Source: ChEMBL document CHEMBL4422691, “Identification of C-6 as a New Site for Linker Conjugation to the Taccalonolide Microtubule Stabilizers” (J Nat Prod, 2019)
Activity calls are given as the source filed them. No cut-off for these calls is given here.

Legend:
Tubulin (Sus scrofa) [1] = molecular target: T1, Tubulin (Sus scrofa) (UniProt P02554+P02550); experiment: Induction of porcine tubulin polymerization measured at 1 min interval for 1 hr; format: protein assay
Tubulin (Sus scrofa) [2] = molecular target: T1, Tubulin (Sus scrofa); experiment: Induction of porcine tubulin polymerization at 5 to 10 uM measured at 1 min interval for 1 hr; format: protein assay
Tubulin (Homo sapiens) [3] = molecular target: T2, Tubulin (Homo sapiens) (UniProt P68371+Q9H4B7+P0DPH7+P68366+Q13509+Q71U36+P04350+Q3ZCM7+P07437+P68363+Q9BQE3+Q6PEY2+Q13885+Q9BVA1+Q9BUF5); experiment: Induction of microtubule stabilization in human HCC1937 cells assessed as co-localization of compound with microtubule at 5 uM after 24 hrs by fluorescence assay; format: cell-based
HeLa = experiment: Antiproliferative activity against human HeLa cells after 48 hrs by sulforhodamine B assay; format: functional, cell-based
Tubulin (Homo sapiens) [4] = molecular target: T2, Tubulin (Homo sapiens); experiment: Induction of microtubule stabilization in human HCC1937 cells assessed as bundling of microtubules at 5 uM after 24 hrs by immunofluorescence assay; format: cell-based
[5] = Stability of the compound in aqueous solution after 24 hrs; format: physicochemical; settings: buffer
Tubulin (Homo sapiens) [6] = molecular target: T2, Tubulin (Homo sapiens); experiment: Induction of microtubule stabilization in human HCC1937 cells at 5 uM after 6 hrs by live cell fluorescence imaging; format: cell-based

T1 sequence (P02550 whole entry, looked up): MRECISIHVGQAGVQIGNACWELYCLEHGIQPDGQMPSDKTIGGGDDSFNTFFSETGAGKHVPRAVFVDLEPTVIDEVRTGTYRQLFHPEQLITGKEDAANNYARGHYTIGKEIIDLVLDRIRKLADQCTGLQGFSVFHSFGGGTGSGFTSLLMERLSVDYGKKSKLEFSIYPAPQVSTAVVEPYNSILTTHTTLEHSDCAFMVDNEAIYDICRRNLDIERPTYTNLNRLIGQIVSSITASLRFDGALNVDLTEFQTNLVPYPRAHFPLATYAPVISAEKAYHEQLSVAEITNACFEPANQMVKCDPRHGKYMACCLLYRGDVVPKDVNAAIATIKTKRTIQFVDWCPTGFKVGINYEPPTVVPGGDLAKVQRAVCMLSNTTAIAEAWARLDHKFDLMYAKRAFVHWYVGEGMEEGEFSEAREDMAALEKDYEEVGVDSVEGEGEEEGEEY
T1 sequence (P02554 whole entry, looked up): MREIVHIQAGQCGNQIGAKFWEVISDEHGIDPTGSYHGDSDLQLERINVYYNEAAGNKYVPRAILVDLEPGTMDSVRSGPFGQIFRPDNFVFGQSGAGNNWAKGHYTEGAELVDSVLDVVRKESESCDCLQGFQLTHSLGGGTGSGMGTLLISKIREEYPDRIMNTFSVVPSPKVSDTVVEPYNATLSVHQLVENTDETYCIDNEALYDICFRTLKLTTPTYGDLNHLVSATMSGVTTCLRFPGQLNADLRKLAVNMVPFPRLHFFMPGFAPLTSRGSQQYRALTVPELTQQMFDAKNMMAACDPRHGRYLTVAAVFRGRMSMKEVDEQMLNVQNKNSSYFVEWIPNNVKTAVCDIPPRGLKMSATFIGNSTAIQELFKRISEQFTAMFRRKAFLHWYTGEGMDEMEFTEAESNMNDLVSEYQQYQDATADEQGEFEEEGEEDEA

Activity (Tubulin (Sus scrofa) [1])	Activity (Tubulin (Sus scrofa) [2])	Activity (Tubulin (Homo sapiens) [3])	IC50 (HeLa)	Activity (Tubulin (Homo sapiens) [4])	Stability [5]	Activity (Tubulin (Homo sapiens) [6])	Compound
Dose-dependent effect							CC(=O)O[C@H]1[C@H]2[C@H]([C@@H]3[C@@H](O)[C@@H]4[C@H]([C@H](C)[C@@H]5O[C@@]56OC(=O)[C@@](C)(O)[C@]46C)[C@@]3(C)[C@H]1OC(C)=O)[C@@H](O)C(=O)[C@H]1C[C@@H]3O[C@@H]3[C@H](OC(C)=O)[C@]21C
	Active	Active	2.5 µM	Active	Stable	Active	CC(=O)O[C@H]1[C@H]2[C@@H]([C@@H](O)[C@@H](OC(=O)CCCCn3cc(COc4ccc5c(c4)Oc4cc(O)ccc4C54OC(=O)c5ccccc54)nn3)[C@H]3C[C@@H]4O[C@@H]4[C@H](OC(C)=O)[C@]23C)[C@@H]2[C@@H](O)[C@@H]3[C@H]([C@H](C)[C@H]4O[C@]45OC(=O)[C@@](C)(O)[C@]35C)[C@@]2(C)[C@H]1OC(C)=O (some centres not stated)
